Reference: patent US7714006B1, “Methods of modifying the bioavailability of metaxalone” (King Pharmaceuticals Research & Development, Inc., priority 2001, dated 2010)

Assay: Effects of age and gender on PK parameters, 2×400 mg data from studies 103 and 105, fed and fasted
Settings: human, in vivo
From the text: This analysis considers the effects of age and gender on three pharmacokinetic (PK) parameters of metaxalone under fed and fasted conditions. The three parameters are: • Cmax: the observed maximum plasma concentration (ng/mL); • AUC(last): the area under the curve (AUC) to the last quantifiable concentration, as measured by the trapezoidal rule (ng-hr/mL); • AUC(inf): the AUC extrapolated to infinity (ng-hr/mL).
Because the distributions of these parameters tend to be skewed, and in accordance with generally accepted practice, all analyses are carried out after computing the natural logarithm (ln) of the values of the PK parameters from individual subjects.
The report is based primarily on two similarly designed studies in which PK parameters were determined under fed and fasted conditions for the 2×400 mg dose of metaxalone: • Study AN151607-103 (hereafter referred to as the 103 study): a four-period, randomized crossover trial with treatment conditions 2×400 mg with food, 2×400 mg without food, 1×800 mg with food, 1×800 mg without food; and • Study ELN151607-105 (hereafter referred to as the 105 study): a two-period, randomized crossover trial with treatment conditions 2×400 mg with food and 2×400 mg without food.
Using the 2×400 mg data from studies 103 and 105, Section 2.2 presents the results of analyses of the effects of age on the fed values of Cmax, AUC(last), and AUC(inf). Section 2.3 similarly reports the results of analyses of fasted values of these parameters using the 2×400 mg data from these two studies. Section 2.4 repeats the analyses of Sections 2.2 and 2.3 using the data from the 1×800 mg treatment of study 103, in combination with the 2×400 mg data from study 105. Finally, Sections 2.5 and 2.6 report the results of similar analyses using the data from studies 101 and 106, respectively.
The primary results are based on the results of linear regression models investigating the effects of age on each PK parameter. Descriptive analyses reporting parametric (Pearson) and nonparametric (Spearman) correlation coefficients between age and each PK parameter are also provided. The Pearson correlation coefficient measures the extent of the linear association between two variables and is most appropriate when the data are approximately bivariate normally distributed with no outliers. The Spearman correlation coefficient is based on the ranks of the variables. It is less sensitive to outliers, but is often also a less sensitive measure of the strength of association.
In study 103, 59 subjects were administered the 2×400 mg dose under fed conditions. The mean age was 26.1 years, with a range from 18 to 50 years. (A total of 64 subjects began the study, of which the average age was 25.6 years. Five subjects were not included in the pharmacokinetic analysis.) In study 105, 44 subjects were administered the 2×400 mg dose under fed conditions. The mean age in study 105 was 56.0 years; with a range from 18 to 81 years.
First, in the combined group of 59+44=103 subjects, Pearson and Spearman correlation coefficients between age and each of the three PK parameters were computed. The correlation coefficients and two-sided p-values from the test of the null hypothesis of no association are shown below in TABLE IIIa:
Linear regression models using the natural logarithm of each of the three PK parameters as the dependent variable and age as the independent variable were fitted in order to estimate the magnitude of the associations with age.
In study 103, the same 59 subjects were administered the 2×400 mg dose under fasted conditions. Similarly, the 44 subjects from study 105 were administered the 2×400 mg dose under fasted conditions.
First, in the combined group of n=103 subjects, Pearson and Spearman correlations between age and each of the three PK parameters were computed. The correlation coefficients and two-sided p-values from the test of the null hypothesis of no association are shown below in TABLE IVa: […]

Percentage increase in AUC(inf) from age 20 to age 70 (both): 74%
Percentage increase in AUC(inf), 70-year-old vs 20-year-old (both): 95%
Percentage increase in AUC(last) from age 20 to age 70 (both): 78%
Percentage increase in AUC(last), 70-year-old vs 20-year-old (both): 98%
Percentage increase in Cmax from age 20 to age 70 (both): 84%
Percentage increase in Cmax, 70-year-old vs 20-year-old (both): 103%
Pearson correlation coefficients age vs PK parameters, range in magnitude (female): 0.49-0.60
SMILES: Cc1cc(C)cc(OCC2CNC(=O)O2)c1 (stereo not shown) [metaxalone, 5-[(3,5-dimethylphenoxy)methyl]-2 oxazolidinone]
